Usually IC50 stands for the concentration needed to halve the response being measured. Low values mean higher potency, high ones lower potency.

Experimental findings from ChEMBL document CHEMBL5260810, “Inhibition of bromodomain-containing protein 9 for the prevention of epigenetically-defined drug resistance” (Bioorg Med Chem Lett, 2017) are described below.

Active and inactive are the calls of the source. The rule behind the calls is not given here.

For test [1], the system named is TOV112D. Put plainly: Cytotoxicity against human TOV112D cells measured after 3 days. The format is functional, cell-based. The settings on record: 72 h.
Test [2] deals with LN-229. Briefly: Cytotoxicity against human LN-229 cells measured after 3 days. The format is functional, cell-based. The settings on record: LN-229, 72 h.
For test [3], the system named is HCC1419. Briefly: Cytotoxicity against human HCC1419 cells measured after 3 days. The test is classed as functional, cell-based. The settings on record: HCC1419, 72 h.
A short description of test [4]: Cytotoxicity against human HCC2450 cells measured after 3 days. The format is functional, cell-based. Conditions: HCC2450, 72 h.
In test [5] the test system is MDA-MB-175-VII. Briefly: Cytotoxicity against human MDA-MB-175-VII cells measured after 3 days. The format is functional, cell-based. Conditions: 72 h.
Test [6] deals with MHH-PREB-1. Put plainly: Cytotoxicity against human MHH-PREB-1 cells measured after 3 days. The format is functional, cell-based. The settings on record: MHH-PREB-1, 72 h.
Test [7] concerns KMS-12-PE. Put plainly: Cytotoxicity against human KMS-12-PE cells measured after 3 days. The format is functional, cell-based. Conditions: 72 h.
The test system of test [8] is RL. Put plainly: Cytotoxicity against human RL cells measured after 3 days. The test is classed as functional, cell-based. Conditions: 72 h.
Test [9] deals with TOV21G. Put plainly: Cytotoxicity against human TOV-21G cells measured after 3 days. The test is classed as functional, cell-based. The settings on record: 72 h.
Test [10] relates to SU-DHL-16. Put plainly: Cytotoxicity against human SU-DHL-16 cells measured after 3 days. The test is classed as functional, cell-based. The settings on record: SU-DHL-16, 72 h.
Test [11] can be described thus: Cytotoxicity against human NCE-G 84 cells measured after 3 days. The test is classed as functional, cell-based. The settings on record: NCE-G 84, 72 h.
Test [12] deals with ML-2. Put plainly: Cytotoxicity against human ML-2 cells measured after 3 days. Conditions: ML-2, 72 h. The format is functional, cell-based.
Test [13] is described as follows: Cytotoxicity against human 537-mel cells after 8 days. The format is functional, cell-based. Conditions: 192 h.
For test [14], the system named is SU-DHL-8. Put plainly: Cytotoxicity against human SU-DHL-8 cells measured after 3 days. The test is classed as functional, cell-based. The settings on record: SU-DHL-8, 72 h.
Test [15] in a line: Cytotoxicity against human MOLP8 cells measured after 3 days. The format is functional, cell-based. The settings on record: MOLP-8, 72 h.
For test [16], the system named is OCI-AML2. Briefly: Cytotoxicity against human OCI-AML2 cells measured after 3 days. The test is classed as functional, cell-based. Conditions: OCI-AML2, 72 h.
Test [17] can be described thus: Cytotoxicity against human HCC1428 cells measured after 3 days. The format is functional, cell-based. Conditions: HCC1428, 72 h.
Test [18] in a line: Cytotoxicity against human MOR cells measured after 3 days. The test is classed as functional, cell-based. The settings on record: 72 h.
The test system of test [19] is L-363. Briefly: Cytotoxicity against human L-363 cells measured after 3 days. The test is classed as functional, cell-based. Conditions: L-363, 72 h.
For test [20], the system named is CAMA-1. Briefly: Cytotoxicity against human CAMA-1 cells measured after 3 days. The test is classed as functional, cell-based. The settings on record: CAMA-1, 72 h.
For test [21], the system named is SK-MES-1. Briefly: Cytotoxicity against human SK-MES-1 cells measured after 3 days. The test is classed as functional, cell-based. Conditions: SK-MES-1, 72 h.
In test [22] the test system is 769-P. Put plainly: Cytotoxicity against human 769-P cells measured after 3 days. The test is classed as functional, cell-based. The settings on record: 72 h.
For test [23], the system named is KG-1. Put plainly: Cytotoxicity against human KG-1 cells measured after 3 days. The test is classed as functional, cell-based. Conditions: KG-1, 72 h.
A short description of test [24]: Cytotoxicity against human HCC193 cells after 8 days. The test is classed as functional, cell-based. The settings on record: HCC193, 192 h.
Test [25] concerns NCI-H2444. Put plainly: Cytotoxicity against human NCI-H2444 cells measured after 3 days. The test is classed as functional, cell-based. Conditions: NCI-H2444, 72 h.
Test [26] relates to MEL-HO. Put plainly: Cytotoxicity against human MEL-HO cells measured after 3 days. The test is classed as functional, cell-based. Conditions: 72 h.
The test system of test [27] is EB2. Put plainly: Cytotoxicity against human EB2 cells measured after 3 days. The format is functional, cell-based. The settings on record: EB2, 72 h.
Test [28] in a line: Cytotoxicity against human KP-3L cells measured after 3 days. The test is classed as functional, cell-based. The settings on record: 72 h.
Test [29] in a line: Cytotoxicity against human NCE-G 118 cells measured after 3 days. The format is functional, cell-based. Conditions: NCE-G 118, 72 h.
Test [30] can be described thus: Cytotoxicity against human EB1 cells measured after 3 days. The format is functional, cell-based. The settings on record: EB1, 72 h.
Test [31] can be described thus: Cytotoxicity against human EFM-192C cells measured after 8 days. The test is classed as functional, cell-based. Conditions: 192 h.
In test [32] the test system is A2780. Put plainly: Cytotoxicity against human A2780 cells measured after 3 days. The test is classed as functional, cell-based. The settings on record: A2780, 72 h.
Test [33] concerns KARPAS-422. Briefly: Cytotoxicity against human KARPAS-422 cells measured after 3 days. The test is classed as functional, cell-based. The settings on record: KARPAS-422, 72 h.
The test system of test [34] is NALM-6. Briefly: Cytotoxicity against human NALM-6 cells measured after 3 days. The format is functional, cell-based. The settings on record: NALM-6, 72 h.
Test [35] deals with T1, Bromodomain-containing protein 9 (Homo sapiens) (UniProt Q9H8M2).
T1 sequence (whole entry): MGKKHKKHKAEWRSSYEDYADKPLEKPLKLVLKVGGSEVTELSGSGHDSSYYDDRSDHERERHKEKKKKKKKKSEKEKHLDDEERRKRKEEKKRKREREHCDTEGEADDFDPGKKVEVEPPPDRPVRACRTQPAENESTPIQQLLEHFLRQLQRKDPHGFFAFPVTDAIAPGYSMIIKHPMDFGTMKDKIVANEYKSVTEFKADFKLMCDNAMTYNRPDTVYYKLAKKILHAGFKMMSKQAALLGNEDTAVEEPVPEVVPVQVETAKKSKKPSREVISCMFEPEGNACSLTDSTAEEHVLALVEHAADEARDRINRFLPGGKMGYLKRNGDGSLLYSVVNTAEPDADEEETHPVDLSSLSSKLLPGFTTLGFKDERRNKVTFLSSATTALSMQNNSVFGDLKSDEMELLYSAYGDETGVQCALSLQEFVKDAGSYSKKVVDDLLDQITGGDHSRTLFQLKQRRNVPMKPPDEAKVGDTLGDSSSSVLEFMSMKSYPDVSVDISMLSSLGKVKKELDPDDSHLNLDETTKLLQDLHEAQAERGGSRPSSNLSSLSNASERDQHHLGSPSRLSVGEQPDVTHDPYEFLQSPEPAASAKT
Briefly: Binding affinity to BRD9 in human PC-9 cell lysate assessed as increase in thermal stabilization at 2 uM at 44 to 50 degreeC measured after 30 mins by CETSA. The format is subcellular.

For test [36], the system named is HCC1954. Put plainly: Antiproliferative activity against human HCC1954 cells assessed as reduction in colony formation at 1 uM supplemented with fresh medium containing compound every 3 days by MTT staining based assay. The test is classed as functional, cell-based. Conditions: time 9.0 day. (In general: Tetrazolium assays rely on reduction of a dye to a coloured formazan, in cell work by metabolically active cells.)

Test [37] has as its system YMB-1-E. Put plainly: Cytotoxicity against human YMB-1-E cells measured after 3 days. The test is classed as functional, cell-based. The settings on record: 72 h.
Test [38] concerns NCI-H1944. Briefly: Cytotoxicity against human NCI-H1944 cells measured after 3 days. The test is classed as functional, cell-based. Conditions: NCI-H1944, 72 h.
Test [39] deals with OV-90. Put plainly: Cytotoxicity against human OV-90 cells measured after 3 days. The test is classed as functional, cell-based. The settings on record: OV-90, 72 h.
Test [40] relates to REH. Briefly: Cytotoxicity against human REH cells measured after 8 days. The test is classed as functional, cell-based. Conditions: 192 h.
Test [41] has as its target T1, Bromodomain-containing protein 9 (Homo sapiens). Put plainly: Inhibition of BRD9 in human PC-9 cells assessed as reduction in ALDH1A1 gene expression at 5 uM preincubated with erlotinib for 8 days followed by compound addition and measured after 24 hrs by RNA sequencing analysis. The format is cell-based.
Test [42] has as its system BXPC-3. Briefly: Antiproliferative activity against human BxPC-3 cells assessed as reduction in colony formation up to 20 uM supplemented with fresh medium containing compound every 3 days for 9 days by MTT staining based clonogenic assay. The test is classed as functional, cell-based. Conditions: time 9.0 day.
Test [43] concerns Kasumi 1. Put plainly: Cytotoxicity against human Kasumi 1 cells measured after 8 days. The test is classed as functional, cell-based. Conditions: Kasumi 1, 192 h.
Test [44] deals with HPAC. Put plainly: Antiproliferative activity against HPAC assessed as reduction in colony formation upto 20 uM supplemented with fresh medium containing compound every 3 days for 9 days by MTT staining based clonogenic assay. The format is functional, cell-based. Conditions: Homo sapiens, time 9.0 day.
The test system of test [45] is A549. Briefly: Antiproliferative activity against human A549 cells assessed as reduction in colony formation up to 20 uM supplemented with fresh medium containing compound every 3 days for 9 days by MTT staining based clonogenic assay. The format is functional, cell-based. Conditions: time 9.0 day.

Turning to `C/C=C/Cn1cc(-c2cc(OC)c(C(=O)N3CCOCC3)cc2OC)c2cc(C)[nH]c2c1=O`, the IC50 in test [1], in [2], in [3], in test [4], in test [5] and in [6] was 5 µM throughout. Further, the IC50 in test [7], in test [8], in test [9], in test [10], in test [11] and in test [12] was 5 µM in each case. The IC50 was 2 µM in [13]; 5 µM in [14]; 5 µM in test [15]; 5 µM in test [16]; 5 µM in test [17]; 5 µM in [18]. The IC50 in [19] is 5 µM; in [20], 5 µM; in test [21] it was 5 µM; in [22], 5 µM; in test [23], 5 µM; in [24], 2 µM. Further, the IC50 in [25], in [26], in [27], in test [28], in test [29] and in test [30] was 5 µM each time. In addition, the half-inhibitory concentration (IC50) in [31] is 2 µM; in test [32], 5 µM; in test [33] it was 5 µM; in test [34], 5 µM; in [37], 5 µM; in [38], 5 µM. This compound displayed a half-inhibitory concentration (IC50) in test [39] of 5 µM. In test [35], the result was Active. In addition, the result in [36] was inactive.
For the compound `C/C=C/Cn1cc(-c2ccc(C(C)(C)O)cc2OC)c2cc[nH]c2c1=O`, the IC50 in test [40] was 20 µM; in test [43], 3.63 µM. Moreover, the inhibition entry in [41] is “Active”. Moreover, the outcome in [42], in [44] and in [45] was inactive.
